Test results from patent US20230338337A1, “BIOMARKERS FOR CANCER THERAPY USING MDM2 ANTAGONISTS” (OTSUKA PHARMACEUTICAL CO., LTD., priority 2019, published 2023).
Like-named read-outs stand apart in the source and are kept apart here.

What was measured:
SJSA-1 = experiment: Protocol B: CellTiter-Glo cell viability assay; settings: for IC50: read-out: SJSA1 IC50 (μM) (Protocol B)
[1] = molecular target: MDM2-p53 interaction (in vitro translated MDM2) (Homo sapiens (Human), UniProt Q00987); experiment: MDM2-p53 interaction 96-well plate binding assay (ELISA); settings: for MDM2 % inhibition at 0.0010: at 0.0010 μM; for MDM2 % inhibition at 0.0030: at 0.0030 μM
Chain of MDM2-p53 interaction (in vitro translated MDM2) (Q00987 whole entry): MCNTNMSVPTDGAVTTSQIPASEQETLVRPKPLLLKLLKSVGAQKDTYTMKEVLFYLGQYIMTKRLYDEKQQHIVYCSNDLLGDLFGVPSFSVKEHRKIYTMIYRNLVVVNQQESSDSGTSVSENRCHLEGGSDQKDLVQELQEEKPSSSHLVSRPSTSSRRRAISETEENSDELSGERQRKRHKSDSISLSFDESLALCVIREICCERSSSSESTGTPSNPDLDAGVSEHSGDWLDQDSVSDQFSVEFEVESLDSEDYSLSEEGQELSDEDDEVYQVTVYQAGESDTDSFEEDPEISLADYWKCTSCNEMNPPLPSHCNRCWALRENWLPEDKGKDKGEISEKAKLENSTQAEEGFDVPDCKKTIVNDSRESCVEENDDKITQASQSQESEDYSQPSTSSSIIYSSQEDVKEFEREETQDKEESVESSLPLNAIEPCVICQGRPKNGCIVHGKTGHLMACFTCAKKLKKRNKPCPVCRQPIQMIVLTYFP

Compound | IC50 (SJSA-1; Protocol B) [µM] | also measured
6-{[(1R)-1-(4-chlorophenyl)-7-fluoro-5-[1-(4-fluorooxan-4-yl)-1-hydroxypropyl]-1-[(2R)-2-hydroxypropoxy]-3-oxo-2,3-dihydro-1H-isoindol-2-yl]methyl}pyridine-3-carbonitrile [Example 498] | – | SJSA1 (Protocol B) % inhibition at 10 (SJSA-1; Protocol B, at 10 μM): 96% at 10; MDM2 % inhibition at 0.10 ([1]; at 0.10 μM): 32%@0.10
(3R)-3-(4-chlorophenyl)-2-[(5-chloropyridin-2-yl)methyl]-4-fluoro-6-[1-hydroxy-1-(4-methyl-1H-imidazol-2-yl)ethyl]-3-[(1-hydroxycyclopropyl)methoxy]-2,3-dihydro-1H-isoindol-1-one [Example 332] | 2.6 | MDM2 % at concentration ([1]; at 0.030 μM): 60%@0.030
(3R)-3-(4-chlorophenyl)-2-[(5-chloropyrimidin-2-yl)methyl]-4-fluoro-6-[1-hydroxy-1-(1-methyl-1H-imidazol-4-yl)propyl]-3-[(3S)-oxolan-3-yloxy]-2,3-dihydro-1H-isoindol-1-one [Example 474] | 1.3 | MDM2 % inhibition at 0.030 ([1]; at 0.030 μM): 38%@0.030
2-{[(1R)-1-(4-chlorophenyl)-7-fluoro-5-[(1S)-1-(4-fluorooxan-4-yl)-1-hydroxypropyl]-3-oxo-1-[cis-3-hydroxycyclobutoxy]-2,3-dihydro-1H-isoindol-2-yl]methyl}pyrimidine-5-carbonitrile [Example 506] | 3.4 | MDM2 % inhibition at 0.030 ([1]; at 0.030 μM): 36%@0.030
(3R)-3-(4-chlorophenyl)-2-[(5-chloropyrimidin-2-yl)methyl]-4-fluoro-3-[(3-fluorooxetan-3-yl)methoxy]-6-[2-hydroxy-1-(piperazin-1-yl)butan-2-yl]-2,3-dihydro-1H-isoindol-1-one [Example 539] | 0.092 | MDM2 % inhibition at 0.0010 [1]: 41%@0.0010
(3R)-3-(4-chlorophenyl)-2-[(5-chloropyrimidin-2-yl)methyl]-4-fluoro-6-[1-(4-fluoropiperidin-4-yl)-1-hydroxypropyl]-3-[cis-3-hydroxycyclobutoxy]-2,3-dihydro-1H-isoindol-1-one [Example 542] | 3.1 | MDM2 % inhibition at 0.010 ([1]; at 0.010 μM): 57%@0.010
CCC(O)(c1cc(F)c2c(c1)C(=O)N(Cc1ncc(C#N)cn1)[C@@]2(O[C@H]1CCOC1)c1ccc(Cl)cc1)c1cn(C)cn1 (stereo partly drawn) [Example 369, 2-{[(1R)-1-(4-chlorophenyl)-7-fluoro-5-[1-hydroxy-1-(1-methyl-1H-imidazol-4-yl)propyl]-3-oxo-1-[(3S)-oxolan-3-yloxy]-2,3-dihydro-1H-isoindol-2-yl]methyl}pyrimidine-5-carbonitrile] | 0.062 | –
6-{[(1R)-1-(4-chlorophenyl)-7-fluoro-5-[1-(4-fluorooxan-4-yl)-1-hydroxypropyl]-1-(2-hydroxyethoxy)-3-oxo-2,3-dihydro-1H-isoindol-2-yl]methyl}pyridine-3-carbonitrile [Example 499] | 0.053 | MDM2 % inhibition at 0.0010 [1]: 68%@0.0010
(3R)-3-(4-chlorophenyl)-2-[(3,5-difluoropyridin-2-yl)methyl]-4-fluoro-6-[1-hydroxy-1-(1-methyl-1H-pyrazol-4-yl)ethyl]-3-[(1-hydroxycyclopropyl)methoxy]-2,3-dihydro-1H-isoindol-1-one [Example 350] | 0.51 | MDM2 % at concentration ([1]; at 0.030 μM): 54%@0.030
(3S)-3-(4-chlorophenyl)-3-[(1R)-1-(4-chlorophenyl)-5-(1-cyclobutyl-1-hydroxyethyl)-7-fluoro-1-methoxy-3-oxo-2,3-dihydro-1H-isoindol-2-yl]propanoic acid [Example 103] | – | IC50 (SJSA-1; SJSA-1, CellTiter-Glo, 72 hrs): 0.8 µM
6-{[1-(4-chlorophenyl)-7-fluoro-5-[1-hydroxy-1-(1-methyl-1H-pyrazol-4-yl)ethyl]-3-oxo-1-[cis-3-hydroxycyclobutoxy]-2,3-dihydro-1H-isoindol-2-yl]methyl}pyridine-3-carbonitrile [Example 356] | 0.96 | –
(3R)-3-(4-chlorophenyl)-2-[(5-chloropyrimidin-2-yl)methyl]-4-fluoro-6-{1-hydroxy-1-[trans-4-hydroxycyclohexyl}-3-[cis-3-hydroxycyclobutoxy]-2,3-dihydro-1H-isoindol-1-one: *fast eluting isomer [Example 496] | 1.8 | –
1-({[(1R)-1-(4-chlorophenyl)-2-[(5-chloropyrimidin-2-yl)methyl]-7-fluoro-5-[1-hydroxy-1-(1-methyl-1H-pyrazol-4-yl)ethyl]-3-oxo-2,3-dihydro-1H-isoindol-1-yl]oxy}methyl)cyclopropane-1-carboxamide [Example 214] | 0.22 | –
(3S)-3-(4-chlorophenyl)-3-[(1R)-1-(4-chlorophenyl)-7-fluoro-5-[1-hydroxy-1-(oxan-4-yl)ethyl]-1-methoxy-3-oxo-2,3-dihydro-1H-isoindol-2-yl]propanoic acid [Example 88] | – | IC50 (SJSA-1; SJSA-1, CellTiter-Glo, 72 hrs): 0.23 µM
4-{[(1R)-1-(4-chlorophenyl)-7-fluoro-5-[1-hydroxy-1-(1-methyl-1H-imidazol-4-yl)propyl]-3-oxo-1-[(3S)-oxolan-3-yloxy]-2,3-dihydro-1H-isoindol-2-yl]methyl}-3-(hydroxymethyl)benzonitrile [Example 92] | – | IC50 (SJSA-1; SJSA-1, CellTiter-Glo, 72 hrs): 0.084 µM
6-{[(1R)-1-(4-chlorophenyl)-1-[(1-cyanocyclopropyl)methoxy]-7-fluoro-5-[1-hydroxy-1-(1-methyl-1H-pyrazol-4-yl)ethyl]-3-oxo-2,3-dihydro-1H-isoindol-2-yl]methyl}pyridine-3-carbonitrile [Example 211] | 0.36 | –
1-({[(1R)-1-(4-chlorophenyl)-2-[(5-chloropyrimidin-2-yl)methyl]-7-fluoro-5-[2-hydroxy-1-(piperazin-1-yl)butan-2-yl]-3-oxo-2,3-dihydro-1H-isoindol-1-yl]oxy}methyl)cyclopropane-1-carbonitrile [Example 537] | 0.76 | –
(3R)-3-(4-chlorophenyl)-2-[(5-chloropyridin-2-yl)methyl]-4-fluoro-6-[1-hydroxy-1-(1-methyl-1H-pyrazol-4-yl)ethyl]-3-(2-hydroxyethoxy)-2,3-dihydro-1H-isoindol-1-one [Example 213] | 0.25 | –

Further lines, with some results ahead:

IC50 (SJSA-1; Protocol B) [µM] | Compound | also measured
1.7 | (3R)-3-(4-chlorophenyl)-4-fluoro-6-[1-hydroxy-1-(1-methyl-1H-pyrazol-4-yl)ethyl]-3-[(1-hydroxycyclopropyl)methoxy]-2-[(5-methoxypyridin-2-yl)methyl]-2,3-dihydro-1H-isoindol-1-one [Example 347] | MDM2 % at concentration ([1]; at 0.10 μM): 63%@0.10
1.9 | (3R)-3-(4-chlorophenyl)-2-[(5-chloropyrimidin-2-yl)methyl]-4-fluoro-6-{1-hydroxy-1-[trans-4-hydroxycyclohexyl]propyl}-3-(2-hydroxyethoxy)-2,3-dihydro-1H-isoindol-1-one [Example 519] | MDM2 % inhibition at 0.030 ([1]; at 0.030 μM): 35%@0.030
0.2 | 2-{[(1R)-1-(4-chlorophenyl)-7-fluoro-5-[1-hydroxy-1-(1-methyl-1H-imidazol-4-yl)propyl]-3-oxo-1-{[trans-3-hydroxycyclobutyl]methoxy}-2,3-dihydro-1H-isoindol-2-yl]methyl}pyrimidine-5-carbonitrile [Example 483] | MDM2 % inhibition at 0.0010 [1]: 58%@0.0010
0.86 | (3R)-3-(4-Chlorophenyl)-2-[(5-chloropyrimidin-2-yl)methyl]-4-fluoro-6-[1-hydroxy-1-(piperidin-4-yl)propyl]-3-[(3S)-oxolan-3-yloxy]-2,3-dihydro-1H-isoindol-1-one [Example 448] | MDM2 % inhibition at 0.0010 [1]: 84%@0.0010
3.9 | 6-{[(1R)-1-(4-chlorophenyl)-7-fluoro-5-[1-hydroxy-1-(1-methyl-1H-pyrazol-4-yl)propyl]-3-oxo-1-[(3S)-oxolan-3-yloxy]-2,3-dihydro-1H-isoindol-2-yl]methyl}pyridine-3-carbonitrile [Example 359] | MDM2 % at concentration ([1]; at 0.10 μM): 50%@0.10
0.39 | 6-{[(1R)-1-(4-chlorophenyl)-7-fluoro-5-[1-hydroxy-1-(1-methyl-1H-imidazol-4-yl)butyl]-3-oxo-1-[(3S)-oxolan-3-yloxy]-2,3-dihydro-1H-isoindol-2-yl]methyl}pyridine-3-carbonitrile [Example 472] | MDM2 % inhibition at 0.0030 [1]: 48%@0.0030
2.2 | (3R)-3-(4-chlorophenyl)-2-[(5-chloropyrimidin-2-yl)methyl]-4-fluoro-3-[(3-fluorooxetan-3-yl)methoxy]-6-[2-hydroxy-1-(piperazin-1-yl)butan-2-yl]-2,3-dihydro-1H-isoindol-1-one [Example 538] | MDM2 % inhibition at 0.030 ([1]; at 0.030 μM): 44%@0.030
0.69 | (3R)-6-[1-(1-acetylpiperidin-4-yl)-1-hydroxyethyl]-2-{[5-chloro-3-(hydroxymethyl)pyridin-2-yl]methyl}-3-(4-chlorophenyl)-4-fluoro-3-methoxy-2,3-dihydro-1H-isoindol-1-one [Example 424] | MDM2 % inhibition at 0.0030 [1]: 45%@0.0030
0.41 | (3R)-2-[(5-chloro-1-oxo-1λ^5-pyridin-2-yl)methyl]-3-(4-chlorophenyl)-4-fluoro-6-[1-hydroxy-1-(1-methyl-1H-pyrazol-4-yl)ethyl]-3-[(1-hydroxycyclopropyl)methoxy]-2,3-dihydro-1H-isoindol-1-one [Example 409] | –
4.3 | (3R)-3-(4-chlorophenyl)-2-[(3,5-difluoropyridin-2-yl)methyl]-4-fluoro-6-[1-hydroxy-1-(1-methyl-1H-pyrazol-4-yl)ethyl]-3-[(1-hydroxycyclopropyl)methoxy]-2,3-dihydro-1H-isoindol-1-one [Example 351] | MDM2 % at concentration ([1]; at 0.10 μM): 25%@0.10
4.9 | 2-{[(1R)-1-(4-chlorophenyl)-7-fluoro-5-[1-hydroxy-1-(1-methyl-1H-imidazol-4-yl)propyl]-3-oxo-1-{[trans-3-hydroxycyclobutyl]methoxy}-2,3-dihydro-1H-isoindol-2-yl]methyl}pyrimidine-5-carbonitrile [Example 484] | –
